Experimental data taken from patent US20040259932A1, “Method and compound to reduce the incidence of diabetes in a subject with chronic heart failure” (priority 2003, published 2004).
“Also recorded” adds a separate entry of the source.

How the values were obtained:
[1] = test system: Elderly; conditions: candesartan compared with placebo; nonsignificant; cited from earlier work
[2] = compared with metoprolol; cited from earlier work
[3] = test system: hypertensive population; conditions: captopril compared with a β-blocker or a diuretic; cited from earlier work
[4] = test system: patients with hypertension; conditions: cited from earlier work; for patients who developed diabetes: losartan compared with atenolol
[5] = test system: high-risk patients with no evidence of left ventricular dysfunction; conditions: cited from earlier work
[6] = test system: obese, hypertensive, and dyslipidemic patients; conditions: given for 12 weeks; cited from earlier work
[7] = test system: hypertensive rats; conditions: cited from earlier work
[8] = test system: patients with left ventricular dysfunction; test: Retrospective analysis of Montreal Heart Institute patients of the SOLVD trials: new-onset diabetes (FPG≧126 mg/dL at 2 visits); format: in vivo, human
From the text: The patients from the Montreal Heart Institute who were randomized in the SOLVD trials were included in this study. SOLVD was a multicenter, double-blind, randomized, placebo-controlled trial that assessed the effect of the ACE inhibitor enalapril on survival in patients with left ventricular dysfunction (ejection fraction≦35%). The details of the trial have been described elsewhere.^12 Briefly, the prevention trial included 4228 patients with asymptomatic left ventricular dysfunction, and the treatment trial randomized 2569 patients with congestive heart failure from June 1986 to August 1991. Patients were randomized to enalapril (5 to 20 mg/day) or placebo. Exclusion criteria included age >80 years, unstable angina pectoris, myocardial infarction in the previous month, severe pulmonary disease, renal insufficiency (creatinine level>177 μmol/L [2 mg/dL]), and intolerance to ACE inhibitor or current ACE inhibitor use. Follow-up visits were scheduled 2 and 6 weeks after randomization and every 4 months until the end of the study, for a mean follow-up of 3.4 and 3.1 years for the treatment and prevention trials, respectively.
Baseline characteristics, past medical history, and medication profiles at the time of enrolment into the SOLVD trials were obtained from the SOLVD databases. Fasting plasma glucose (FPG) was not collected for research purposes in the SOLVD trials. However, follow-up of patients in SOLVD involved regular blood samples, including FPG, at almost every research visit. Accordingly, the medical file of each patient was reviewed, and FPG results were collected. Chart reviewers were blinded to treatment allocation.
A diagnosis of new onset diabetes during the follow-up period was defined according to the American Diabetes Association criteria^13 as a FPG≧126 mg/dL (7.0 mmol/L) at 2 different visits. For the purpose of the present study, the visits in which FPG≧126 occurred during infection, trauma, or acute myocardial infarction were not included.
Participants with diabetes at baseline (history of diabetes or FPG≧126 mg/dL at screening visit) were excluded. The study population was further divided among patients with impaired FPG at baseline (110 mg/dL[6.1 mmol/L]≦FPG<126mg/dL [7.0 mmol/L]) and those with normal FPG at baseline (FPG<110 mg/dL).
The baseline characteristic of the 2 groups were compared using Student's t test for continuous variables and the X^2 test for categorical variables. Incidence of diabetes in the 2 groups was compared with the X^2 test. Time to occurrence of diabetes during the follow-up was analyzed with Kaplan-Meier curves and compared with the log-rank test. To analyze the effect of the treatment (enalapril) on development of diabetes, a Cox regression analysis was used to take into account the effect of potential confounding baseline variables (age, sex, current smoking, history of hypertension, and weight) and time-dependent variables (systolic blood pressure; diastolic blood pressure; and use of β-blockers, diuretics, calcium-channel blockers, antiplatelet agents, or antiarrhythmics). Cox proportional-hazard models were performed for each variable, with treatment (enalapril) forced in all models. Variables with a P≦0.2 were included in a multivariate Cox proportional hazard model. […] Subgroup analyses were conducted with the X^2 test. In the particular subgroup of patients with impaired FPG at baseline, Kaplan-Meier curves were performed. Preliminary assumptions were verified before all analyses. P<0.05 was considered significant. All analyses were performed using SAS version 8.2 (SAS Institute, Inc).

## CCOc1nc2cccc(C(=O)O)c2n1Cc1ccc(-c2ccccc2-c2nnn[nH]2)cc1 [candesartan]
[1]
  relative reduction in the incidence of diabetes: 20%

## COc1ccccc1OCCNCC(O)COc1cccc2[nH]c3ccccc3c12 (stereo not drawn) [carvedilol]
[2]
  effect on insulin sensitivity: favorable effect on insulin sensitivity

## C[C@H](CS)C(=O)N1CCC[C@H]1C(=O)O [captopril]
[3]
  relative risk of developing diabetes (RR): 0.86

## CC(C)NCC(O)COc1ccc(CC(N)=O)cc1 (stereo not drawn) [atenolol]
[4]
  patients who developed diabetes: 8%

## CCOC(=O)[C@H](CCc1ccccc1)N[C@@H](C)C(=O)N1[C@H](C(=O)O)C[C@@H]2CCC[C@@H]21 [ramipril]
[5]; ramipril vs placebo
  RR of developing diabetes: 0.66
[5]; treatment period of 4.5 years
  incidence of diabetes: 3.6%
[5]; treatment period of 4.5 years, ramipril vs placebo
  reduction of the relative risk of developing diabetes: 34%

## CCOC(=O)[C@H](CCc1ccccc1)N[C@@H](C)C(=O)N1CCC[C@H]1C(=O)O [enalapril]
[6]
  insulin sensitivity: improved insulin sensitivity
[7]
  insulin sensitivity: improved insulin sensitivity
[8]; Kaplan-Meier, enalapril vs placebo, P<0.0001, FIG. 1
  probability of remaining free from diabetes during follow-up: significantly higher
[8]; Prevention arm of the trial (n = 198)
  New cases of diabetes, %: 6.0%
[8]; Prevention arm of the trial (n = 198), enalapril vs placebo
  Absolute Risk Reduction: 13.4%
[8]; Treatment arm of the trial (n = 93)
  New cases of diabetes, %: 5.7%
[8]; Treatment arm of the trial (n = 93), enalapril vs placebo
  Absolute Risk Reduction: 24.3%
[8]; enalapril vs placebo, total population
  relative risk [RR] of new-onset diabetes: 0.26
[8]; impaired FPG at baseline, IFG (n = 55)
  New cases of diabetes, %: 3.3%
[8]; impaired FPG at baseline, IFG (n = 55), enalapril vs placebo
  Absolute Risk Reduction: 45%
[8]; impaired FPG at baseline, IFG (n = 55), enalapril vs placebo, listed as Enalapril
  Absolute Risk Reduction: 44.7%
[8]; multivariate analysis, Cox regression model, 95% confidence intervals 0.10 to 0.46
  Hazard Ratio for development of diabetes: 0.22
[8]; normal FPG at baseline, NFG (n = 236)
  New cases of diabetes, %: 6.6%
[8]; normal FPG at baseline, NFG (n = 236), enalapril vs placebo
  Absolute Risk Reduction: 10.7%
[8]; patients with left ventricular systolic dysfunction
  risk of developing diabetes (in words): markedly reduced the risk of developing diabetes; also recorded: markedly reduces the risk of developing diabetes mellitus
[8]; total population (n = 291), enalapril 5 to 20 mg/day, mean follow-up 2.9 years
  New cases of diabetes, %: 5.9%
[8]; total population (n = 291), enalapril vs placebo
  Absolute Risk Reduction: 16.5%
[8]; treated for 2.9 years
  number of patients to treat to prevent one new case of diabetes: 6 patients

## CCCCc1nc(Cl)c(CO)n1Cc1ccc(-c2ccccc2-c2nn[nH]n2)cc1 [losartan]
[4]
  patients who developed diabetes: 6%
[4]; losartan vs atenolol
  RR of developing diabetes: 0.75
